Data reported in ChEMBL document CHEMBL1137726, “Novel 4-aryl-pyrido[1,2-c]pyrimidines with dual SSRI and 5-HT1A activity, part 1” (Eur J Med Chem, 2009).
Activity calls are given as the source filed them. The rule behind the calls is not given here.

Key:
Mus musculus [1] = assay: Induction of hypothermia in Albino Swiss mouse assessed as change in body temperature pretreated for 30 mins at 20 mg/kg, ip measured 120 mins after drug dose; type: functional, organism-based; parameters: dose 20 mg/kg
Mus musculus [2] = assay: Induction of hypothermia in Albino Swiss mouse assessed as change in body temperature pretreated for 30 mins at 5 mg/kg, ip measured 120 mins after drug dose; type: functional, organism-based; parameters: dose 5 mg/kg
Mus musculus [3] = assay: Induction of hypothermia in Albino Swiss mouse assessed as change in body temperature pretreated for 30 mins at 10 mg/kg, ip measured 60 mins after drug dose; type: functional, organism-based; parameters: dose 10 mg/kg
[4] = target: Sodium-dependent serotonin transporter (Rattus norvegicus, UniProt P31652); assay: Displacement of [3H]citalopram from 5HTT in rat brain membranes; type: cell membranes
Mus musculus [5] = assay: Induction of hypothermia in Albino Swiss mouse assessed as change in body temperature pretreated for 30 mins at 20 mg/kg, ip measured 60 mins after drug dose; type: functional, organism-based; parameters: dose 20 mg/kg
Mus musculus [6] = assay: Induction of hypothermia in Albino Swiss mouse assessed as change in body temperature pretreated for 30 mins at 20 mg/kg, ip measured 90 mins after drug dose; type: functional, organism-based; parameters: dose 20 mg/kg
Mus musculus [7] = assay: Induction of hypothermia in Albino Swiss mouse assessed as change in body temperature pretreated for 30 mins at 5 mg/kg, ip measured 30 mins after drug dose; type: functional, organism-based; parameters: dose 5 mg/kg
[8] = target: T1, 5-hydroxytryptamine receptor 1A (Rattus norvegicus, UniProt P19327); assay: Displacement of [3H]8-OH-DPAT from 5HT1A receptor in rat brain membranes; type: cell membranes
T1 sequence (P19327 whole entry): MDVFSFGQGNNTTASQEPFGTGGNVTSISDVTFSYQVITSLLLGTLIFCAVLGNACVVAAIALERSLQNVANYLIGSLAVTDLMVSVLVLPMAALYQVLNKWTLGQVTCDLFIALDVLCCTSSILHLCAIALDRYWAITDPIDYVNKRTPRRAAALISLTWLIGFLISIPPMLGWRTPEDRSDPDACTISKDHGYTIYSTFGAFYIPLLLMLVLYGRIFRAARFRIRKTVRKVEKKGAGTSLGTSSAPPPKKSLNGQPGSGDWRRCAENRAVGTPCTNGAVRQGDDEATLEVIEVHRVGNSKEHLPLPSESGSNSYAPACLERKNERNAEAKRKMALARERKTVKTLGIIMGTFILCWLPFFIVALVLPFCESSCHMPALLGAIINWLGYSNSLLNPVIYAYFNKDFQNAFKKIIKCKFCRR

Mus musculus [9] = assay: Induction of hypothermia in Albino Swiss mouse assessed as change in body temperature pretreated for 30 mins at 10 mg/kg, ip measured 30 mins after drug dose; type: functional, organism-based; parameters: dose 10 mg/kg
Mus musculus [10] = assay: Induction of hypothermia in Albino Swiss mouse assessed as change in body temperature pretreated for 30 mins at 10 mg/kg, ip measured 90 mins after drug dose; type: functional, organism-based; parameters: dose 10 mg/kg
Mus musculus [11] = assay: Induction of hypothermia in Albino Swiss mouse assessed as change in body temperature pretreated for 30 mins at 20 mg/kg, ip measured 30 mins after drug dose; type: functional, organism-based; parameters: dose 20 mg/kg
Mus musculus [12] = assay: Inhibition of 8-OH-DPAT-induced hypothermia in Albino Swiss mouse assessed as change in body temperature at 20 mg/kg, ip; type: functional, organism-based; parameters: dose 20 mg/kg
Mus musculus [13] = assay: Induction of hypothermia in Albino Swiss mouse assessed as change in body temperature pretreated for 30 mins at 10 mg/kg, ip measured 120 mins after drug dose; type: functional, organism-based; parameters: dose 10 mg/kg
Mus musculus [14] = assay: Induction of hypothermia in Albino Swiss mouse assessed as change in body temperature pretreated for 30 mins at 5 mg/kg, ip measured 60 mins after drug dose; type: functional, organism-based; parameters: dose 5 mg/kg
Mus musculus [15] = assay: Induction of hypothermia in Albino Swiss mouse assessed as change in body temperature pretreated for 30 mins at 5 mg/kg, ip measured 90 mins after drug dose; type: functional, organism-based; parameters: dose 5 mg/kg
Mus musculus [16] = assay: Effect on spontaneous locomotor activity in Albino Swiss mouse assessed as number of light-beam crossings in actiometers pretreated for 30 mins at 20 mg/kg, ip measured during 30 mins post drug dose; type: functional; settings: route intraperitoneal
Mus musculus [17] = assay: Induction of hypothermia in 0.1 mg/kg WAY 100635 pretreated Albino Swiss mouse assessed as change in body temperature at 20 mg/kg, ip measured 30 mins after drug dose; type: functional, organism-based
Mus musculus [18] = assay: Effect on spontaneous locomotor activity in Albino Swiss mouse assessed as number of light-beam crossings in actiometers pretreated for 30 mins at 20 mg/kg, ip measured during 6 mins post drug dose; type: functional; settings: route intraperitoneal
Mus musculus [19] = assay: Reduction of immobility time in Albino Swiss mouse at 10 mg/kg, ip pretreated for 30 mins by forced swimming test; type: functional; parameters: scale not given: the % may be the effect or the level left
Mus musculus [20] = assay: Induction of hypothermia in 0.1 mg/kg WAY 100635 pretreated Albino Swiss mouse assessed as change in body temperature at 20 mg/kg, ip measured 60 mins after drug dose; type: functional, organism-based
Mus musculus [21] = assay: Reduction of spontaneous locomotor activity in Albino Swiss mouse at 20 mg/kg, ip during 30 mins; type: functional, organism-based; parameters: dose 20 mg/kg
Mus musculus [22] = assay: Effect on spontaneous locomotor activity in Albino Swiss mouse assessed as number of light-beam crossings in actiometers pretreated for 30 mins at 10 mg/kg, ip measured during 6 mins post drug dose; type: functional; settings: route intraperitoneal
Mus musculus [23] = assay: Reduction of spontaneous locomotor activity in Albino Swiss mouse at 20 mg/kg, ip during 6 mins; type: functional, organism-based; parameters: dose 20 mg/kg
Mus musculus [24] = assay: Effect on spontaneous locomotor activity in Albino Swiss mouse assessed as number of light-beam crossings in actiometers pretreated for 30 mins at 10 mg/kg, ip measured during 30 mins post drug dose; type: functional; settings: route intraperitoneal
Mus musculus [25] = assay: Reduction of immobility time in Albino Swiss mouse at 1 mg/kg, ip pretreated for 30 mins by forced swimming test; type: functional; parameters: scale not given: the % may be the effect or the level left; settings: route intraperitoneal
Mus musculus [26] = assay: Reduction of immobility time in Albino Swiss mouse at 2 mg/kg, ip pretreated for 30 mins by forced swimming test; type: functional; parameters: scale not given: the % may be the effect or the level left; settings: route intraperitoneal
Mus musculus [27] = assay: Reduction of immobility time in Albino Swiss mouse at 20 mg/kg, ip pretreated for 30 mins by forced swimming test; type: functional; parameters: scale not given: the % may be the effect or the level left
Mus musculus [28] = species on record: Mus musculus; settings: Albino Swiss, 10 mg/kg
Description: Induction of hypothermia in 0.1 mg/kg WAY 100635 pretreated Albino Swiss mouse assessed as change in body temperature at 10 mg/kg, ip measured 30 mins after drug dose

Mus musculus [29] = species on record: Mus musculus; settings: Albino Swiss, 10 mg/kg; remark: listed apart in the source
Description: Induction of hypothermia in 0.1 mg/kg WAY 100635 pretreated Albino Swiss mouse assessed as change in body temperature at 10 mg/kg, ip measured 60 mins after drug dose

Sequence of Sodium-dependent serotonin transporter (P31652 whole entry): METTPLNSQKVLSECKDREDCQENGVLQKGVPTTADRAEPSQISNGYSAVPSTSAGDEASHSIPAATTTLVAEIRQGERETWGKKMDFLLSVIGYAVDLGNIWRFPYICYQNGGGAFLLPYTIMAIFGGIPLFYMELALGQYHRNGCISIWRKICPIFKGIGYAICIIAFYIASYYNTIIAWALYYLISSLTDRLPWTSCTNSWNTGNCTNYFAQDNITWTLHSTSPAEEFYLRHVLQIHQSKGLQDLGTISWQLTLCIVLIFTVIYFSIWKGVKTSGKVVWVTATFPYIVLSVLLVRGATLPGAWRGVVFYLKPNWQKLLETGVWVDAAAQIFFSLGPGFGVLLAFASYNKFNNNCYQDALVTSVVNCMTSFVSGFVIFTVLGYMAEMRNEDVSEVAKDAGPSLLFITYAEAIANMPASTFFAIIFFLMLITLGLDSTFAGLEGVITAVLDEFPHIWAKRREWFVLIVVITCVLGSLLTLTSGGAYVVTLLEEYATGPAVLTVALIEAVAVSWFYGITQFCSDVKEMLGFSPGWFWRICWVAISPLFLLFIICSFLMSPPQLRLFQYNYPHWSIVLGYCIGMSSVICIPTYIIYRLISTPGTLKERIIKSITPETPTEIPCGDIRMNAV

| SMILES | Ki [4] [µM] | Ki [8] [µM] | deltaT (Mus musculus [1]) [°C] | deltaT (Mus musculus [2]) [°C] | deltaT (Mus musculus [3]) [°C] | deltaT (Mus musculus [5]) [°C] | deltaT (Mus musculus [6]) [°C] | deltaT (Mus musculus [7]) [°C] | deltaT (Mus musculus [9]) [°C] | deltaT (Mus musculus [10]) [°C] | deltaT (Mus musculus [11]) [°C] | deltaT (Mus musculus [13]) [°C] | deltaT (Mus musculus [14]) [°C] | deltaT (Mus musculus [15]) [°C] | deltaT (Mus musculus [17]) [°C] | deltaT (Mus musculus [20]) [°C] | further results |
| --- | --- | --- | --- | --- | --- | --- | --- | --- | --- | --- | --- | --- | --- | --- | --- | --- | --- |
| COc1ccc2[nH]cc(C3CCN(CCCCn4c(=O)c(-c5ccc(C)cc5)c5ccccn5c4=O)CC3)c2c1 | 0.223 | 0.059 |  |  |  |  |  |  |  |  |  |  |  |  |  |  |  |
| COc1ccc2[nH]cc(C3CCN(CCCCn4c(=O)c(-c5ccc(F)cc5)c5ccccn5c4=O)CC3)c2c1 | 0.0546 | 0.0346 |  |  |  |  |  |  |  |  |  |  |  |  |  |  |  |
| O=c1c(-c2ccccc2F)c2ccccn2c(=O)n1CCCCN1CCC(c2c[nH]c3ccccc23)CC1 | 0.0007 | 0.0048 | -0.7 | -0.1 | -0.2 | -0.8 | -0.7 | -0.5 | -0.8 | -0.3 | -1.1 | -0.1 | -0.3 | -0.1 | -0.3 | -0.1 | Activity (Mus musculus [21]): Active; Activity (Mus musculus [22]): 179; Activity (Mus musculus [19]; route intraperitoneal): 40%; Activity (Mus musculus [23]): Active; Activity (Mus musculus [24]): 399 |
| Br.CCCN(CCC)C1CCc2cccc(O)c2C1 (configuration not stated) |  |  |  |  |  |  |  |  |  |  |  |  |  |  |  |  | Activity (Mus musculus [25]): 45%; Activity (Mus musculus [26]): 57% |
| COc1ccc(-c2c(=O)n(CCCCN3CCC(c4c[nH]c5ccc(OC)cc45)CC3)c(=O)n3ccccc23)cc1 | 0.129 | 0.078 |  |  |  |  |  |  |  |  |  |  |  |  |  |  |  |
| COc1ccc2[nH]cc(C3CCN(CCCCn4c(=O)c(-c5ccccc5F)c5ccccn5c4=O)CC3)c2c1 | 0.0593 | 0.0167 |  |  |  |  |  |  |  |  |  |  |  |  |  |  |  |
| COc1ccc2[nH]cc(C3CCN(CCCCn4c(=O)c(-c5ccccc5)c5ccccn5c4=O)CC3)c2c1 | 0.129 | 0.0523 |  |  |  |  |  |  |  |  |  |  |  |  |  |  |  |

Now from value to compound, other results behind:

| Ki [4] [µM] | Ki [8] [µM] | SMILES | deltaT (Mus musculus [1]) [°C] | deltaT (Mus musculus [2]) [°C] | deltaT (Mus musculus [3]) [°C] | deltaT (Mus musculus [5]) [°C] | deltaT (Mus musculus [6]) [°C] | deltaT (Mus musculus [7]) [°C] | deltaT (Mus musculus [9]) [°C] | deltaT (Mus musculus [10]) [°C] | deltaT (Mus musculus [11]) [°C] | deltaT (Mus musculus [13]) [°C] | deltaT (Mus musculus [14]) [°C] | deltaT (Mus musculus [15]) [°C] | deltaT (Mus musculus [17]) [°C] | deltaT (Mus musculus [20]) [°C] | further results |
| --- | --- | --- | --- | --- | --- | --- | --- | --- | --- | --- | --- | --- | --- | --- | --- | --- | --- |
| 0.145 | 0.0421 | COc1ccc(-c2c(=O)n(CCCCN3CCC(c4c[nH]c5ccccc45)CC3)c(=O)n3ccccc23)cc1 | -0.1 | -0.4 | -0.3 | -0.2 | -0.2 | -0.3 | -0.3 | -0.1 | -0.3 | -0.2 | -0.6 | -0.6 |  |  | Activity (Mus musculus [12]): inactive |
| 0.0581 | 0.0109 | O=c1c(-c2ccccc2)c2ccccn2c(=O)n1CCCCN1CCC(c2c[nH]c3ccccc23)CC1 | -1.9 | -0.1 | -0.4 | -1.3 | -1.1 | -0.4 | -0.8 | -0.3 | -1.2 | -0.1 | -0.5 | -0.4 | -0.5 | -0.3 | Activity (Mus musculus [16]): 926; Activity (Mus musculus [18]): 409; Activity (Mus musculus [19]; route intraperitoneal): 29% |
| 0.251 | 0.0411 | COc1ccc2[nH]cc(C3CCN(CCCCn4c(=O)c(-c5ccc(Cl)cc5)c5ccccn5c4=O)CC3)c2c1 |  |  |  |  |  |  |  |  |  |  |  |  |  |  |  |
| 0.28 | 0.0371 | O=c1c(-c2ccc(Cl)cc2)c2ccccn2c(=O)n1CCCCN1CCC(c2c[nH]c3ccccc23)CC1 | -0.7 | -0.2 | -0.1 | -1 | -1.1 | -0.5 | -0.4 | -0.1 | -1.2 | -0.1 | -0.4 | -0.4 | -0.4 | -0.2 |  |
| 0.0376 | 0.0092 | O=c1c(-c2ccc(F)cc2)c2ccccn2c(=O)n1CCCCN1CCC(c2c[nH]c3ccccc23)CC1 | -0.6 | -0.3 | -1.2 | -1 | -0.8 | -0.4 | -1.2 | -1 | -1.2 | -0.8 | -0.3 | -0.4 |  |  | Activity (Mus musculus [22]): 376; Activity (Mus musculus [27]; route intraperitoneal): 34%; deltaT (Mus musculus [28]): -0.8 °C; Activity (Mus musculus [24]): 965; deltaT (Mus musculus [29]): -0.8 °C |
| 0.0003 | 0.0058 | Cc1ccc(-c2c(=O)n(CCCCN3CCC(c4c[nH]c5ccccc45)CC3)c(=O)n3ccccc23)cc1 | -0.8 | -0.1 | -0.3 | -0.8 | -0.7 | -0.4 | -0.5 | -0.1 | -1 | -0.1 | 0.2 | -0.1 | -0.3 | -0.2 | Activity (Mus musculus [27]): inactive; Activity (Mus musculus [19]): inactive |
